Results as given in ChEMBL document CHEMBL5625170, “Design, synthesis, and biological evaluation of novel penindolone derivatives as potential inhibitors of hemagglutinin-mediated membrane fusion” (Eur J Med Chem, 2023).
Active and inactive are the calls of the source. The calls are words filed in the database; no cut-off is given here.

Key:
[1] = target: Hemagglutinin (Influenza A virus (A/Puerto Rico/8/1934(H1N1))) (UniProt P03452); assay: Blockade of Influenza A virus (A/Puerto Rico/8/34) Hemagglutinin-mediated membrane fusion in Vero cells expressing PR8 HA assessed as syncytium formation at pH 5 by quantitative membrane fusion assay; type: cell-based; details: dose 5-40 µM
Influenza A virus [2] = assay: Anti-viral activity against Influenza H1N1 virus (A/Virginia09/ATCC1/2009; Vir09) infected (at MOI = 3) in MDCK cell assessed as reduction in hemagglutinin titer using chicken RBC measured after 60 mins by hemagglutinin assay; type: functional, organism-based; details: H1N1 A/Virginia09/ATCC1/2009, dose 5-20 µM
Influenza A virus [3] = assay: Anti-viral activity against Influenza A virus H1N1 (A/Puerto Rico/8/34) infected (at MOI = 3) in MDCK cell assessed as reduction in hemagglutinin titer using chicken RBC measured after 60 mins by hemagglutinin assay; type: functional, organism-based; details: H1N1 A/Puerto Rico/8/34, MDCK, 1 h
MDCK [4] = assay: Reduction in NP protein expression in Influenza A virus (A/Puerto Rico/8/34) infected in MDCK cell at 40 uM after 60 mins by Western blot analysis; type: functional, cell-based
Influenza A virus [5] = assay: Anti-viral activity against Influenza virus H3N2 (A/Aichi/2/68; Aichi) infected (at MOI = 3) in MDCK cell assessed as reduction in hemagglutinin titer using chicken RBC measured after 60 mins by hemagglutinin assay; type: functional, organism-based; details: 1 h
[6] = Cytotoxicity against dog MDCK cells assessed as cell viability measured after 48 hrs by MTT assay; type: toxicity, cell-based, Canis lupus familiaris
Influenza A virus [7] = assay: In vivo antiviral activity against Influenza A virus (A/Puerto Rico/8/34) infected in BALB/c mouse assessed as decrease in pulmonary viral titers at 2.5 to 5 mg/kg, po once daily treated after 4 hrs of inoculation for 4 days relative to control; type: functional, organism-based; details: dose 2.5-5 mg/kg, time 4.0 day
Influenza A virus [8] = assay: Anti-viral activity against Influenza A virus H1N1 (A/Virginia09/ATCC1/2009; Vir09) infected in MDCK cells assessed as inhibition of virus cytopathic effect measured after 48 hrs by crystal violet staining based assay; type: functional
Influenza A virus [9] = assay: In vivo antiviral activity against Influenza A virus (A/Puerto Rico/8/34) infected in BALB/c mouse assessed as intact columnar epithelia in bronchiole without inflammatory cell infiltration at 5 mg/kg, po once daily treated after 4 hrs of inoculation for 4 days relative to control by HE staining based histopathological analysis; type: functional, organism-based
[10] = target: Hemagglutinin (Influenza A virus (A/Puerto Rico/8/1934(H1N1)), UniProt P03452); assay: Binding affinity to Influenza A virus (A/Puerto Rico/8/34) Hemagglutinin by surface plasmon resonance (SPR) assay
[11] = Cytotoxicity against human A549 cells assessed as cell viability measured after 48 hrs by MTT assay; type: toxicity, cell-based
Influenza A virus [12] = assay: Potency index, ratio of penindolone-IC50 to test compound IC50 for anti-viral activity against Influenza A virus (A/Puerto Rico/8/34) infected in MDCK cells; type: functional
[13] = Toxicity in BALB/c mouse infected with Influenza A virus (A/Puerto Rico/8/34) assessed as death at 2.5 mg/kg, po after 8 days; type: organism-based; details: in vivo, 192 h, time 8 day
[14] = target: Hemagglutinin (Influenza A virus (A/Puerto Rico/8/1934(H1N1))) (UniProt P03452); assay: Blockade of Influenza A virus (A/Puerto Rico/8/34) Hemagglutinin-mediated membrane fusion in Vero cells expressing PR8 HA assessed as syncytium formation at pH 5 and measured at 15 uM measured after 2 hrs by polykaryon assay; type: cell-based
Influenza A virus [15] = assay: Anti-viral activity against Influenza virus H3N2 (A/Aichi/2/68; Aichi) infected in MDCK cells assessed as inhibition of virus cytopathic effect measured after 48 hrs by crystal violet staining based assay; type: functional
[16] = Toxicity in BALB/c mouse infected with Influenza A virus (A/Puerto Rico/8/34) assessed as decrease in body weight at 2.5 mg/kg, po upto 8 days; type: organism-based; details: in vivo, 192 h, time < 8 day
[17] = Selectivity index, ratio of CC50 for cytotoxicity against dog MDCK cells to IC50 for anti-viral activity against Influenza A virus (A/Puerto Rico/8/34 infected in MDCK cells; type: toxicity, cell-based; details: read-out: Selectivity Index
[18] = target: Hemagglutinin (Influenza A virus (A/Puerto Rico/8/1934(H1N1))) (UniProt P03452); assay: Inhibition of trypsin-mediated Influenza A virus (A/Puerto Rico/8/34) hemagglutinin protein digestion pretreated at 50 uM for 20 mins at pH 5 followed by treated with trypsin for 30 mins at pH 8.5 by SDS-PAGE/trypsin susceptibility (TS) assay
Influenza A virus [19] = assay: Anti-viral activity against Influenza A virus H1N1 (A/WSN/33; WSN) infected in MDCK cells assessed as inhibition of virus cytopathic effect measured after 48 hrs by crystal violet staining based assay; type: functional
MDCK [20] = assay: Reduction in NS1 protein expression in Influenza A virus (A/Puerto Rico/8/34) infected in MDCK cell after 60 mins by Western blot analysis; type: functional, cell-based
MDCK [21] = assay: Reduction in HA2 protein expression in Influenza A virus (A/Puerto Rico/8/34) infected in MDCK cell after 60 mins by Western blot analysis; type: functional, cell-based; details: dose 2.5-20 µM
Influenza A virus [22] = assay: In vivo antiviral activity against Influenza A virus (A/Puerto Rico/8/34) infected in BALB/c mouse assessed as increase in mouse survival at 2.5 mg/kg, po once daily treated after 4 hrs of inoculation for 5 days; type: functional, organism-based; details: time 5.0 day
Influenza A virus [23] = assay: In vivo antiviral activity against Influenza A virus (A/Puerto Rico/8/34) infected in BALB/c mouse assessed as increase in mouse survival at 2.5 mg/kg, po once daily treated after 4 hrs of inoculation for 14 days relative to control; type: functional; details: A/Puerto Rico/8/34, 336 h, time 14 day
Influenza B virus = assay: Anti-viral activity against Influenza B virus strain (B/Hong Kong/5/72) infected in MDCK cells assessed as inhibition of virus cytopathic effect measured after 48 hrs by crystal violet staining based assay; type: functional
[24] = Cytotoxicity against african green monkey Vero cells assessed as cell viability measured after 48 hrs by MTT assay; type: toxicity, cell-based; details: chlorocebus sabaeus
[25] = target: Hemagglutinin (Influenza A virus (A/Puerto Rico/8/1934(H1N1))) (UniProt P03452); assay: Blockade of Influenza A virus (A/Puerto Rico/8/34) Hemagglutinin-mediated membrane fusion in Vero cells expressing PR8 HA assessed as syncytium formation at pH 5 and measured at 20 uM measured after 2 hrs by polykaryon assay; type: cell-based
[26] = target: Hemagglutinin (Influenza A virus (A/Puerto Rico/8/1934(H1N1))) (UniProt P03452); assay: Blockade of Influenza A virus (A/Puerto Rico/8/34) Hemagglutinin-mediated membrane fusion in Vero cells expressing PR8 HA assessed as syncytium formation at pH 5 at 5 to 20 uM by quantitative membrane fusion assay; type: cell-based; details: dose 5-20 µM
[27] = Toxicity in BALB/c mouse infected with Influenza A virus (A/Puerto Rico/8/34) assessed as death at 10 mg/kg, po after 11 days; type: organism-based; details: in vivo, 264 h, time 11 day
Influenza A virus [28] = assay: In vivo antiviral activity against Influenza A virus (A/Puerto Rico/8/34) infected in BALB/c mouse assessed as intact columnar epithelia in bronchiole without inflammatory cell infiltration at 10 mg/kg, po once daily treated after 4 hrs of inoculation for 4 days relative to control by HE staining based histopathological analysis; type: functional, organism-based
Influenza A virus [29] = assay: In vivo antiviral activity against Influenza A virus (A/Puerto Rico/8/34) infected in BALB/c mouse assessed as increase in mouse survival at 10 mg/kg, po once daily treated after 4 hrs of inoculation for 14 days relative to control; type: functional; details: A/Puerto Rico/8/34, 336 h, time 14 day
[30] = Toxicity in BALB/c mouse infected with Influenza A virus (A/Puerto Rico/8/34) assessed as decrease in body weight at 10 mg/kg, po upto 8 days; type: organism-based; details: in vivo, 192 h, time < 8 day

Sequence of Hemagglutinin (Influenza A virus (A/Puerto Rico/8/1934(H1N1)), UniProt P03452) (P03452 whole entry): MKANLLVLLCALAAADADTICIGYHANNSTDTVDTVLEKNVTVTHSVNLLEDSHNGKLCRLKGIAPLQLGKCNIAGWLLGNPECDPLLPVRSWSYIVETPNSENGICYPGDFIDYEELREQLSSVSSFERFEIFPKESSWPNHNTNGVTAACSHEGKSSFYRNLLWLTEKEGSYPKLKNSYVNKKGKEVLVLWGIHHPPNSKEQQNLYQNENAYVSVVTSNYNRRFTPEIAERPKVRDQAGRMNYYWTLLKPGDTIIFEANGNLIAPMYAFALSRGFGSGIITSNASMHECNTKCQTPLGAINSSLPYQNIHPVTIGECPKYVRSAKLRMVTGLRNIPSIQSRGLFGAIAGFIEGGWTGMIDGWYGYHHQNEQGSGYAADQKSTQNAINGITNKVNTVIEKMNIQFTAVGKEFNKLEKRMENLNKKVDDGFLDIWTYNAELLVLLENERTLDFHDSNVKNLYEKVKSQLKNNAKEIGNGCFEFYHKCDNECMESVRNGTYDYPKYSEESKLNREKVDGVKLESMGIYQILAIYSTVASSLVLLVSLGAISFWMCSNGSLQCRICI
Sequence of Hemagglutinin (Influenza A virus (A/Puerto Rico/8/1934(H1N1))) (P03452 whole entry, the tested form may be a part): as the sequence (P03452 whole entry) above

## CC(=O)c1cc(C)c(O)c(Cc2[nH]c3ccc(-c4c5ccccc5cc5ccccc45)cc3c2Cc2c(O)c(C)cc(C(C)=O)c2O)c1O
[1]
  inhibition: Dose-Dependent Effect
Influenza A virus [2]
  inhibition: Dose-Dependent Effect
Influenza A virus [3]
  IC50: < 5 µM
MDCK [4]
  inhibition: Active
Influenza A virus [5]
  IC50: < 10 µM
[6]
  CC50 at 48 h: > 300 µM
Influenza A virus [7]
  Activity: Active
Influenza A virus [8]
  inhibition (INH): 13.5%
Influenza A virus [9]
  Activity: Active
[10]
  Kd: 6.4 µM
[11]
  CC50 at 48 h: 180 µM
Influenza A virus [12]
  Ratio IC50: 3.8
[13]
  Activity: Toxic
[14]
  inhibition: Active
Influenza A virus [15]
  inhibition (INH): 8.7%
[16]
  Activity: Non-Toxic
[17]
  selectivity ratio: > 44.8
[18]
  inhibition: Active
Influenza A virus [19]
  inhibition (INH): 5.6%
MDCK [20]
  inhibition: Dose-Dependent Effect
MDCK [21]
  inhibition: Dose-Dependent Effect
Influenza A virus [22]
  Activity: Active
Influenza A virus [23]
  survival at 2.5 mg/kg: 70%
Influenza B virus
  inhibition (INH): 3.4%
[24]
  CC50 at 48 h: 1350 µM

## CCOC(=O)c1c(CSc2ccccc2)n(C)c2cc(Br)c(O)c(CN(C)C)c12 [UMIFENOVIR]
[10]
  Kd: 51.4 µM

## CC(=O)c1cc(C)c(O)c(Cc2[nH]c3ccccc3c2Cc2c(O)c(C)cc(C(C)=O)c2O)c1O
[6]
  CC50 at 48 h: > 300 µM
[10]
  Kd: 8.4 µM
[25]
  inhibition: Active
[17]
  selectivity ratio: > 11.8
[26]
  inhibition: Active

## CC(=O)c1cc(C)c(O)c(Cc2[nH]c3cc(C)ccc3c2Cc2c(O)c(C)cc(C(C)=O)c2O)c1O
[6]
  CC50 at 48 h: > 300 µM
[17]
  selectivity ratio: > 19.9

## CCOC(=O)C1=C[C@@H](OC(CC)CC)[C@H](NC(C)=O)[C@@H](N)C1 [OSELTAMIVIR]
[6]
  CC50 at 48 h: > 300 µM
[27]
  Activity: Non-Toxic
Influenza A virus [28]
  Activity: Active
Influenza A virus [29]
  survival at 10 mg/kg: 80%
[17]
  selectivity ratio: > 26.3
[30]
  Activity: Toxic

## CC(=O)c1cc(C)c(O)c(Cc2[nH]c3cc(-c4csc5ccccc45)ccc3c2Cc2c(O)c(C)cc(C(C)=O)c2O)c1O
[6]
  CC50 at 48 h: > 300 µM
[17]
  selectivity ratio: > 14.4

## COc1ccc(-c2ccc3[nH]c(Cc4c(O)c(C)cc(C(C)=O)c4O)c(Cc4c(O)c(C)cc(C(C)=O)c4O)c3c2)cc1
[6]
  CC50 at 48 h: > 300 µM
[17]
  selectivity ratio: > 18.4

## CSc1ccc(-c2ccc3c(Cc4c(O)c(C)cc(C(C)=O)c4O)c(Cc4c(O)c(C)cc(C(C)=O)c4O)[nH]c3c2)cc1
[6]
  CC50 at 48 h: > 300 µM
[17]
  selectivity ratio: > 33

## COc1cccc(OC)c1-c1ccc2[nH]c(Cc3c(O)c(C)cc(C(C)=O)c3O)c(Cc3c(O)c(C)cc(C(C)=O)c3O)c2c1
[6]
  CC50 at 48 h: 271 µM
[17]
  selectivity ratio: 12.9

## COc1cccc(OC)c1-c1ccc2c(Cc3c(O)c(C)cc(C(C)=O)c3O)c(Cc3c(O)c(C)cc(C(C)=O)c3O)[nH]c2c1
[6]
  CC50 at 48 h: > 300 µM
[17]
  selectivity ratio: > 15.4

## COc1ccc2cc(-c3ccc4[nH]c(Cc5c(O)c(C)cc(C(C)=O)c5O)c(Cc5c(O)c(C)cc(C(C)=O)c5O)c4c3)ccc2c1
[6]
  CC50 at 48 h: > 300 µM
[17]
  selectivity ratio: > 14.2

## CC(=O)c1cc(C)c(O)c(Cc2[nH]c3ccc(-c4ccc(Cl)cc4)cc3c2Cc2c(O)c(C)cc(C(C)=O)c2O)c1O
[6]
  CC50 at 48 h: > 300 µM
[17]
  selectivity ratio: > 11.1

## CC(=O)c1cc(C)c(O)c(Cc2[nH]c3ccc(Br)cc3c2Cc2c(O)c(C)cc(C(C)=O)c2O)c1O
[6]
  CC50 at 48 h: 233 µM
[17]
  selectivity ratio: 9.2
